Assay results: PMC5853561, “Affinity purification with metabolomic and proteomic analysis unravels diverse roles of nucleoside diphosphate kinases” (Journal of Experimental Botany, 2017)

How the values were obtained:
[1] = target: T1, NDPK1 recombinant protein (AtNDPK1) (Arabidopsis thaliana, UniProt P39207); assay: coupled pyruvate kinase-lactate dehydrogenase assay, NADH at […] nm; format: biochemical; details: inhibitor; 500 uM cGMP; ATP and 4 mM TDP as substrates
T1 construct: gene NDK1; recombinant protein from commercial supplier (MyBioSource)
T1 sequence (P39207 1-149): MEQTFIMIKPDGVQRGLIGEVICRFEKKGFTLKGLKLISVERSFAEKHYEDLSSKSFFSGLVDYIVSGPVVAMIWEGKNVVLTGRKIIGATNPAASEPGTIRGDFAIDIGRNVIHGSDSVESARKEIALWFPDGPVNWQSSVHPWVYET

[2] = target: T1, NDPK1 recombinant protein (AtNDPK1); assay: as above; format: biochemical; details: phosphate acceptor, ATP as donor; 4 mM TDP

Compound	specific activity, % of control at 500 uM [1] [%]	coupled pyruvate kinase-lactate dehydrogenase assay, NADH at 340 nm [2]
Nc1nc2c(ncn2[C@@H]2O[C@@H]3COP(=O)(O)O[C@H]3[C@H]2O)c(=O)[nH]1 [3',5'-cGMP]	51	
Cc1cn([C@H]2C[C@H](O)[C@@H](COP(=O)(O)OP(=O)(O)O)O2)c(=O)[nH]c1=O [TDP]		TDP was used as a NDPK1 substrate and phosphate group acceptor
